{"source": "patent US20030176689A1", "about": "“Inhibitors of hepatitis C virus protease” (priority 2001, published 2003)", "key": {"NS3 and wt NS4A": {"target": "NS3 and wt NS4A (Hepatitis C virus genotype 1a, UniProt P27958)", "sequence (P27958 1027-1207)": "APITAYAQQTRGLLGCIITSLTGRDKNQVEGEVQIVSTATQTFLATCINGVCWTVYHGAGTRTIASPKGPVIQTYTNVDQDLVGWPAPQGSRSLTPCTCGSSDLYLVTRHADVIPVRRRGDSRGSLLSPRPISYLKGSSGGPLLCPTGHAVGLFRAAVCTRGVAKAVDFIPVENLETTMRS", "assay": "Inhibition of cleavage of 5A-pNA by NS3 and wt NS4A", "assay_type": "biochemical, HCV", "details": "for inhibition of cleavage of 5A-pNA by NS3 and wt NS4A: FIG. 12", "procedure": "Again, lower case letters indicate the D-amino acid. Cha represents cyclohexylalanine. The peptides were assayed for inhibition of cleavage of 5A-pNA by NS3 and wt NS4A."}, "HCV": {"test_system": "HCV", "details": "PBMCs from an HCV-infected patient, 4 days, NS3 Western blot; preliminary, first experiment", "quoted_text": "This induces production of HCV in these cells. The PBMCs were grown in the presence of varying concentrations of Peptides 1, 3, or 5 for 4 days, and then harveted, lysed, and analyzed by SDS-PAGE followed by Western blot using monoclonal antibodies that specifically bind HCV NS3 protease. The blots were then stripped and probed with antibodies for SHP-1 as a loading control."}, "HCV NS3 protease domain": {"target": "T1, HCV NS3 protease domain (Hepatitis C virus genotype 1a, UniProt P27958)", "T1 construct": "immobilization of the NS3 protease domain on streptavidin coated beads; made in house; host or cells: E. coli", "T1 sequence (P27958 1027-1208)": "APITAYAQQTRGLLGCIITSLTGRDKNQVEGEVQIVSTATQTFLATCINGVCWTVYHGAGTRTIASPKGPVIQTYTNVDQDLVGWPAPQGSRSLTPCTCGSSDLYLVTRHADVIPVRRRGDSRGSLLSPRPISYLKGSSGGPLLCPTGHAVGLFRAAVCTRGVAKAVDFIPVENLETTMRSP", "assay": "FAC-MS (frontal affinity chromatography with in-line MS) binding to immobilized NS3", "excerpt": "An assay using frontal affinity chromatography (FAC) with an in-line mass spectrometer (MS) as described by Schriemer et al. 1998 Agnew. Chem. Int. Ed. 37, 3383-3387 (referred to as FAC-MS) was adapted to identify NS3 protease inhibitors. Briefly, a HCV NS3 protease domain was cloned into a site in a vector that allows for the recombinant NS3 protein to be biotinylated when expressed in E. coli. This provides for immobilization of the NS3 protease domain on streptavidin coated beads which are packed into a miniaturized column. The column is connected in-line to a mass spectrometer. This arrangement facilitates assaying combinatorial compounds individually from a library of peptides for activity in binding the immobilized NS3 protease domain. As the library is continually infused through the column, each compound produces a sigmoidal curve as its elution profile.\nThe inventors first examined the ability of mutant NS4A peptides to bind to NS3 using the FAC-MS assay described in Example 1. The sequence of the peptides described here is described by the wild-type residue modified, the position of the residue in the wildtype NS4A polypeptide, and the residue substituted at that position. […] “Pen” refers to Penacillamine; “chA” refers to β-cyclohexylalanine; “t” refers to “tert” (so that, for example, “t-L” refers to tert-leucine. […]"}, "NS3 [1]": {"target": "T2, NS3 (Hepatitis C virus genotype 1a, UniProt P27958)", "T2 sequence (P27958 1027-1207)": "as the sequence (P27958 1027-1207) above", "assay": "Activation of NS3 by mutant NS4A peptides using 5A-pNA as the substrate", "assay_type": "biochemical, HCV", "details": "for kcat: substrate 5A-pNA, extrapolated to infinite NS4A concentration", "quoted_text": "(§1) Binding of the peptides was then analyzed by enzyme kinetics to detect whether the mutated NS4A peptides activated NS3-catalysed cleavage of substrates individually. Two NS3 substrates were used: 5ApNA (which contains the P side residues (six of them) of the substrate linked to para-nitroaniline) and 5A/5B (which is the natural cleavage junction that is found between the NS5A and NS5B proteins) using conventional methods (see, e.g., Landro et. al. 1997, Biochemistry 36 p9340-9348; and “Enzyme Kinetics” by Irwin Segel pub: Wiley and Sons, New York 1975 Chapter 5). Values in the tables were obtained by extrapolating the Km and kcat values obtained for substrates at several concentrations of NS4A mutant peptides to infinite NS4A concentration. The Km and kcat values were obtained from double reciprocal plots of initial velocity measurements made at several concentrations of substrate and a constant NS4Aconcentration. Peptide concentrations used in calculations in Table 3 are based on those supplied by the facility that synthesized the peptides at the inventors' direction."}, "NS3 [2]": {"target": "T2, NS3", "assay": "Activation of NS3 by mutant NS4A peptides using 5A/5B as the substrate", "assay_type": "biochemical, HCV", "details": "substrate 5A/5B; NS3 batch used for wild-type and V23 mutant peptides", "quoted_text": "as §1"}, "NS3 protease": {"target": "NS3 protease (Hepatitis C virus genotype 1a, UniProt P27958)", "sequence (P27958 1027-1207)": "as above", "assay": "Rates of NS3 in the presence of short NS4A peptides", "assay_type": "biochemical, HCV", "details": "substrate 5A-pNA subsaturating; 66 to 360 μM peptide", "procedure": "The ability of the short peptides to activate the NS3 protease was tested at several concentrations between 66 and 360 μM peptide. The concentration of substrate 5A-pNA was subsaturating."}}, "note": "Square brackets hold non-standard residues; d marks the D form. Ends that are not written are not given here. Peptide text beside a SMILES is read from it. Cha = N[C@@H](CC1CCCCC1)C(=O)O; Pen = CC(C)(S)[C@H](N)C(=O)O"}
{"compound": "CC[C@H](C)[C@H](NC(=O)[C@H](CC1CCCCC1)NC(=O)[C@H](CCCNC(=N)N)NC(=O)[C@H](NC(=O)[C@H](CC1CCCCC1)NC(=O)[C@@H](N)CCCNC(=N)N)C(C)C)C(=O)N[C@@H](CC1CCCCC1)C(N)=O", "note": "[Peptide 3, R(Cha)vR(Cha)I(Cha)-NH2] (H-R[Cha][dV]R[Cha]I[Cha]-NH2; N-terminus assumed)", "values": [{"measurement": "IC50", "setting": "NS3 and wt NS4A", "result": "163 ± 5", "unit": "µM"}, {"measurement": "inhibition of cleavage of 5A-pNA by NS3 and wt NS4A", "setting": "NS3 and wt NS4A", "result": "inhibited this reaction"}, {"measurement": "inhibition of replication of HCV in tissue culture", "setting": "HCV", "result": "inhibited replication of HCV in tissue culture"}]}
{"compound": "CC[C@H](C)[C@H](NC(=O)[C@H](CCCNC(=N)N)NC(=O)CNC(=O)[C@@H](NC(=O)[C@@H](NC(=O)[C@@H](NC(=O)[C@@H](NC(=O)[C@H](CO)NC(=O)CNC(=O)[C@H](CCCCN)NC(=O)[C@@H](N)CCCCN)C(C)(C)S)C(C)C)[C@@H](C)CC)C(C)C)C(=O)N[C@H](C(=O)N[C@@H](CC(C)C)C(=O)N[C@@H](CO)C(=O)NCC(=O)N[C@@H](CCCCN)C(=O)O)C(C)C", "note": "[Peptide V23Pen] (H-KKGS[Pen]VIVGRIVLSGK-OH; N-terminus and C-terminus assumed)", "values": [{"measurement": "Kd", "setting": "HCV NS3 protease domain", "result": 4.7, "unit": "µM"}, {"measurement": "kcat", "setting": "NS3 [1]", "result": "0.0145 ± 0.0015", "unit": "s⁻¹"}, {"measurement": "kcat", "setting": "NS3 [2]", "result": "0.113 ± 0.01", "unit": "s⁻¹"}]}
{"compound": "Ac-DEMEED-OH [Ac-DEMEED-OH]", "values": [{"measurement": "FAC-MS elution profile (late elution indicates NS3 binding)", "setting": "HCV NS3 protease domain; Ac-DEMEEX-OH library randomized at P1, FIG. 2", "result": "eluted very late"}, {"measurement": "FAC-MS elution time with a known protease inhibitor added to the library", "setting": "HCV NS3 protease domain; competitive assay, FIG. 3", "result": "shifted forward"}]}
{"compound": "FFW(Cha)vR(Cha)-NH2 [Peptide 5]", "values": [{"measurement": "precipitation in the reaction mixture", "setting": "NS3 and wt NS4A", "result": "caused precipitation in the reaction mixture"}, {"measurement": "inhibition of cleavage of 5A-pNA by NS3 and wt NS4A", "setting": "NS3 and wt NS4A", "result": "inhibited this reaction"}]}
{"compound": "IVGRIVL [IVGRIVL]", "values": [{"measurement": "Kd", "setting": "HCV NS3 protease domain", "result": 103, "unit": "µM"}, {"measurement": "Rate", "setting": "NS3 protease", "result": 1.80, "unit": "µmol/min/mg"}]}
{"compound": "KKGSCVIVGRIVLSGK [Peptide V23C]", "values": [{"measurement": "Kd", "setting": "HCV NS3 protease domain", "result": 4.8, "unit": "µM"}, {"measurement": "kcat", "setting": "NS3 [1]", "result": "0.0197 ± 0.00017", "unit": "s⁻¹"}, {"measurement": "kcat", "setting": "NS3 [2]", "result": "0.124 ± 0.00033", "unit": "s⁻¹"}]}
{"compound": "KKGSFVIVGRIVLSGK [Peptide V23F]", "values": [{"measurement": "Kd", "setting": "HCV NS3 protease domain", "result": 3.7, "unit": "µM"}, {"measurement": "FAC-MS elution (later elution = more tightly bound to NS3)", "setting": "HCV NS3 protease domain; Val23 substituted NS4A peptides, FIG. 4", "result": "eluted last"}, {"measurement": "activation of NS3 catalysed cleavage, rank among peptides mutated at the same position", "setting": "NS3 [1]; position 23 or position 26 mutants", "result": "poorest"}, {"measurement": "kcat", "setting": "NS3 [1]", "result": "0.00782 ± 0.0005", "unit": "s⁻¹"}, {"measurement": "kcat", "setting": "NS3 [2]", "result": "0.0883 ± 0.005", "unit": "s⁻¹"}]}
{"compound": "KKGSLVIVGRIVLSGK [Peptide V23L]", "values": [{"measurement": "Kd", "setting": "HCV NS3 protease domain", "result": 5.1, "unit": "µM"}, {"measurement": "kcat", "setting": "NS3 [1]", "result": "0.0157 ± 0.00075", "unit": "s⁻¹"}]}
{"compound": "KKGSVVIVGRIVLSGK [Wild-type, KKGSVVIVGRIVLSGK, reference compound]", "values": [{"measurement": "Rate", "setting": "NS3 protease", "result": 37.4, "unit": "µmol/min/mg"}]}
{"compound": "VGRIVL", "values": [{"measurement": "Rate", "setting": "NS3 protease", "result": 1.70, "unit": "µmol/min/mg"}]}
{"compound": "VIVGRIVL [VIVGRIVL]", "values": [{"measurement": "Kd", "setting": "HCV NS3 protease domain", "result": 88, "unit": "µM"}, {"measurement": "Rate", "setting": "NS3 protease", "result": 1.76, "unit": "µmol/min/mg"}]}
{"compound": "VVIVGRI [VVIVGRI]", "values": [{"measurement": "Kd", "setting": "HCV NS3 protease domain", "result": 103, "unit": "µM"}, {"measurement": "Rate", "setting": "NS3 protease", "result": 1.88, "unit": "µmol/min/mg"}]}
{"compound": "W(Cha)vR(Cha)I(Cha)-NH2 [Peptide 1]", "values": [{"measurement": "precipitation in the reaction mixture", "setting": "NS3 and wt NS4A", "result": "caused precipitation in the reaction mixture"}, {"measurement": "inhibition of cleavage of 5A-pNA by NS3 and wt NS4A", "setting": "NS3 and wt NS4A", "result": "inhibited this reaction"}]}
